Test results reported in PMC11232109, “Synthesis, anticancer evaluation of novel hybrid pyrazole-based chalcones, molecular docking, DNA fragmentation, and gene expression: in vitro studies” (RSC Advances, 2024).
Like-named read-outs stand apart in the source and are kept apart here.

Assays:
[1] = tested on: MCF7 (human breast adenocarcinoma); experiment: MTT assay, MCF7; format: cell-based; details: for cytotoxicity at 100 µg/mL / IC50: Homo sapiens; for IC50: 48 hours
Description: (§1) The percentage of the cell viability treated with the newly synthesized compounds was evaluated using MTT assay (3-(4,5-dimethylthiazol-2-yl)-2,5-diphenyl tetrazolium bromide). All the subsequent steps were done in a sterile Laminar flow class II biosafety cabinet (Baker, SG406INT, Sanford, ME, USA). DMEM was used as a suspension medium for breast cancer (MCF7), prostate cancer (PC3), and pancreatic cancer (PACA2), while normal cell line (BJ1) was suspended in DMEM-F12 medium, a 1% antibiotic-antimycotic mixture (10 000 U ml^−1 potassium penicillin, 10 000 μg ml^−1 streptomycin sulfate, and 25 μg ml^−1 amphotericin B), and 1% L-glutamine at 37 °C under 5% CO2.
(§2) Cells were cultured for 10 days and then seeded at a concentration of 10 × 10^4 cells per well in fresh complete growth medium in 96-well microtiter plastic plates at 37 °C for 24 hours under 5% CO2 using a water-jacketed carbon dioxide incubator (Sheldon, TC2323). Media were aspirated, serum-free fresh medium was added, and cells were incubated either alone (negative control) or with different concentrations of the synthesized chalcone derivatives to a final concentration of (100–50–25–12.5–6.25–3.125–0.78 and 1.56 μg ml^−1). After incubation for 48 hours, the medium was aspirated and 40 μl of MTT salt ([…]) was added to each well and incubated for another four hours at 37 °C under 5% CO2. To stop the reaction and dissolve the formed crystals, 200 μl of 10% sodium dodecyl sulfate (SDS) in deionized water was added to each well and incubated overnight at 37 °C.
(§3) The absorbance was then measured at 595 nm and a reference wavelength of 620 nm using a microplate multi-well reader (Bio-Rad Laboratories Inc., model 3350). Statistical significance was tested between the samples and the negative control (cells with vehicle) using an independent t-test using the SPSS 11 program. DMSO was the vehicle used for the dissolution of the synthesized chalcones, and its final concentration on the cells was less than 0.2%. The percentage of change in viability was calculated according to the formula: ((reading of extract/reading of negative control) − 1) × 100. A Probit analysis was carried out for the determination of IC50 using the SPSS 11 program.

[2] = MTT assay, normal cell line BJ1; format: cell-based; details: human, at 100 μg ml^−1, 48 hours, read-out: (%) Mortality of BJ1
Description: as §1, §2, §3

PC3 (prostatic cancer) = experiment: MTT assay, PC3; format: cell-based
Description: as §1, §2, §3

[3] = tested on: PACA2 (pancreatic carcinoma); experiment: MTT assay, PACA2; format: cell-based; details: for cytotoxicity at 100 µg/mL / IC50: Homo sapiens; for IC50: 48 hours
Description: as §1, §2, §3

BID = experiment: qPCR gene expression of BID in PACA2 cells; format: cell-based, human; details: treatment with IC50 conc., negative control = 1
Description: (§4) Total RNA was isolated from breast and pancreatic cancer cell lines according to the manufacturer's protocol using RNeasy Mini Kit (Qiagen) supplemented with the DNaseI (Qiagen) digestion step. To digest DNA residues, the isolated total RNA was treated with one unit of RQ1 RNAse-free DNAse (Invitrogen), re-suspended in DEPC-treated water, and quantified using a spectrophotometer at 260 nm. The purity of total RNA was assessed by the 260/280 nm ratio, which was between 1.8 and 2.1. Moreover, RNA integrity was assured by ethidium bromide-stain analysis of 28S and 18S bands by formaldehyde-containing agarose gel electrophoresis. Complete poly(A)+ RNA isolated from breast and pancreatic cell lines was reverse-transcribed into cDNA in a total volume of 20 μl using the RevertAidTM First Strand cDNA Synthesis Kit (Fermentas). […] Subsequently, the reaction tubes containing RT preparations were flash-cooled in an ice chamber until used for cDNA amplification using a quantitative real-time polymerase chain reaction (qRT-PCR).
(§5) Determination of the breast and pancreatic cell line cDNA copy number was carried out using the StepOne™ Real-Time PCR system from Applied Biosystems (Thermo Fisher Scientific). […] The relative quantification of the target to the reference was performed using the 2^−ΔΔCT method (Yang et al., 2017).[51]

CCND1 = experiment: qPCR gene expression of CCND1 in PACA2 cells; format: cell-based, human; details: treatment with IC50 conc., negative control = 1
Description: as §4, §5

IC50 (PC3 (prostatic cancer); Homo sapiens, MTT, 48 hours) [µM] | SMILES | cytotoxicity at 100 µg/mL ([1]; MCF7, 48 h, read-out: (%) Mortality of MCF7) [%] | IC50 ([1]; MCF7, MTT) [µM] | cytotoxicity at 48 h, 100 μg ml^−1 [2] [%] | cytotoxicity at 100 µg/mL (PC3 (prostatic cancer); Homo sapiens, 48 h, read-out: (%) Mortality of PC3) [%] | cytotoxicity at 100 µg/mL ([3]; PaCa-2, 48 h, read-out: (%) Mortality of PACA2) [%] | IC50 ([3]; PaCa-2, MTT) [µM] | Gene expression BID (BID) [fold change/GAPDH] | Gene expression CCND1 (CCND1) [fold change/GAPDH] | cytotoxicity at 100 µg/mL ([1]; MCF7, at 100 μg ml^−1, 48 hours, MTT, read-out: (%) Mortality of MCF7) [%] | cytotoxicity at 48 h, 100 μg ml^−1 ([2]; BJ1 normal skin fibroblasts) [%] | cytotoxicity at 100 µg/mL (PC3 (prostatic cancer); Homo sapiens, at 100 μg ml^−1, 48 hours, MTT, read-out: (%) Mortality of PC3) [%] | cytotoxicity at 100 µg/mL ([3]; PaCa-2, at 100 μg ml^−1, 48 hours, MTT, read-out: (%) Mortality of PACA2) [%] | cytotoxicity at 100 µg/mL ([1]; MCF7, 48 h, at 100 μg ml^−1, 48 hours, MTT, read-out: (%) Mortality of MCF7) [%] | cytotoxicity ([1]; at 100 μg ml^−1, 48 hours, MTT, read-out: (%) Mortality of MCF7) [%] | cytotoxicity at 100 µg/mL (PC3 (prostatic cancer); Homo sapiens, 48 h, at 100 μg ml^−1, 48 hours, MTT, read-out: (%) Mortality of PC3) [%] | cytotoxicity (PC3 (prostatic cancer); at 100 μg ml^−1, 48 hours, MTT, read-out: (%) Mortality of PC3) [%] | cytotoxicity at 100 µg/mL ([3]; PaCa-2, 48 h, at 100 μg ml^−1, 48 hours, MTT, read-out: (%) Mortality of PACA2) [%] | cytotoxicity ([3]; at 100 μg ml^−1, 48 hours, MTT, read-out: (%) Mortality of PACA2) [%]
– | Cc1c(C(=O)C=Cc2nn(-c3ccccc3)cc2-c2ccc([N+](=O)[O-])cc2)c(-c2cccs2)nn1-c1ccc([N+](=O)[O-])cc1 [Compound 9e, 1-(5-Methyl-1-(4-nitrophenyl)-3-(thiophen-2-yl)-1H-pyrazol-4-yl)-3-(4-(4-nitrophenyl)-1-phenyl-1H-pyrazol-3-yl)prop-2-en-1-one] | 14.2 ± 0.37 | 59.3 ± 0.85 | 5.6 ± 0.55 | 5.3 ± 0.94 | 100 | 27.6 ± 0.33 | 0.48 | 0.64 | – | – | – | – | – | – | – | – | – | –
– | COc1cccc2c1C(=O)c1c(O)c3c(c(O)c1C2=O)C[C@@](O)(C(=O)CO)C[C@@H]3O[C@H]1C[C@H](N)[C@H](O)[C@H](C)O1 [Doxorubicin, reference compound] | – | 48 ± 0.74 | – | – | – | – | 0.69 | 0.79 | 100 | 100 | 100 | 100 | – | – | – | – | – | –
66.9 ± 0.98 | Cc1nn(-c2ccccc2)c(C=CC(=O)c2c(-c3cccs3)nn(-c3ccc([N+](=O)[O-])cc3)c2C)c1Cl [Compound 7d, 3-(4-Chloro-3-methyl-1-phenyl-1H-pyrazol-5-yl)-1-(5-methyl-1-(4-nitrophenyl)-3-(thiophen-2-yl)-1H-pyrazol-4-yl)prop-2-en-1-one] | – | 42.6 ± 0.71 | – | – | – | 51.9 ± 0.29 | – | – | – | 12.3 ± 0.23 | – | – | 70 to 80 | 71.2 ± 0.14 | 70 to 80 | 70.6 ± 0.97 | 70 to 80 | 80.3 ± 19
